The numbers were not newly measured in patent publication US20180228811A1, “GDNF INDUCTION FOR THE TREATMENT OF RETINAL DISORDERS” (THE SCHEPENS EYE RESEARCH INSTITUTE, INC., priority 2014, published 2018), which cites them from elsewhere.

For this data set, the system named is photoreceptors. To be noted: rd10 mouse, systemic treatment (Mitton et al. 2014); cited from earlier work.

As to `CCCC(CCC)C(=O)O` [VPA, Valproic acid], the “photoreceptor rescue, result in words” value was “partial photoreceptor rescue”.
